Laboratory results as given in ChEMBL document CHEMBL3822387 (Bioorg Med Chem, 2016).
Activity calls are given as the source filed them. The rule behind the calls is not given here.

What was measured:
[1] = target: Acetylcholinesterase (Electrophorus electricus, UniProt O42275)
Description: Inhibition of electric eel ACHE preincubated for 6 mins followed by addition of acetylcholine iodide as substrate by Ellman's method

[2] = target: Cholinesterase (Equus caballus, UniProt P81908)
Description: Inhibition of equine BCHE preincubated for 6 mins followed by addition of S-butyrylcholine iodide as substrate by Ellman's method

[3] = test system: PC-12; test: Neuroprotective activity against H2O2-induced damage in rat PC12 cells assessed as cell viability at 10 uM preincubated for 2 hrs followed by H2O2 addition for 24 hrs by MTT assay; type: functional, cell-based
[4] = Cytotoxicity against rat PC12 cells assessed as reduction in cell viability at 1 to 50 uM measured after 24 hrs by MTT assay; type: cell-based; settings: pc-12, 24 h
[5] = in vitro; settings: PAMPA
[6] = target: T1, Acetylcholinesterase (Homo sapiens, UniProt P22303)
T1 sequence (P22303 whole entry): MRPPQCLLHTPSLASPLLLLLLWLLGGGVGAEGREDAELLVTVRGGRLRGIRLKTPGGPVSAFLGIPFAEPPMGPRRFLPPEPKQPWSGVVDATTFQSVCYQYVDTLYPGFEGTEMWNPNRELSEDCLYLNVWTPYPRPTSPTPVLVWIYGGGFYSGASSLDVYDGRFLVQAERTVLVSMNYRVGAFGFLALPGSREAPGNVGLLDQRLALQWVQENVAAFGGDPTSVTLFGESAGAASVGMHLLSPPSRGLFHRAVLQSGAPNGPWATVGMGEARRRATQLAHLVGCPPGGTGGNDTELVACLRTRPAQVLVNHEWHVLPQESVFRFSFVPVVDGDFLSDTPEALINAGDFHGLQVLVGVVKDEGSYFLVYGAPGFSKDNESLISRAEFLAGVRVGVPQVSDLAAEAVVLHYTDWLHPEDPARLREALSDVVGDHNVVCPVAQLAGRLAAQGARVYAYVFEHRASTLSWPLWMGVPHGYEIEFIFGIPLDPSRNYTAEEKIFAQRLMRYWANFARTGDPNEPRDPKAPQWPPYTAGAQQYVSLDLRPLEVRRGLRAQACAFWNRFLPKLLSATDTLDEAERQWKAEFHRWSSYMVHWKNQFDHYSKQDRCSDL
Description: Inhibition of human erythrocyte ACHE preincubated for 6 mins followed by addition of acetylcholine iodide as substrate by Ellman's method

[7] = test system: PC-12; test: Neuroprotective activity against H2O2-induced damage in rat PC12 cells assessed as cell viability at 1 to 10 uM preincubated for 2 hrs followed by H2O2 addition for 24 hrs by MTT assay; type: functional, cell-based
[8] = target: T2, Cholinesterase (Homo sapiens, UniProt P06276)
T2 sequence (P06276 whole entry): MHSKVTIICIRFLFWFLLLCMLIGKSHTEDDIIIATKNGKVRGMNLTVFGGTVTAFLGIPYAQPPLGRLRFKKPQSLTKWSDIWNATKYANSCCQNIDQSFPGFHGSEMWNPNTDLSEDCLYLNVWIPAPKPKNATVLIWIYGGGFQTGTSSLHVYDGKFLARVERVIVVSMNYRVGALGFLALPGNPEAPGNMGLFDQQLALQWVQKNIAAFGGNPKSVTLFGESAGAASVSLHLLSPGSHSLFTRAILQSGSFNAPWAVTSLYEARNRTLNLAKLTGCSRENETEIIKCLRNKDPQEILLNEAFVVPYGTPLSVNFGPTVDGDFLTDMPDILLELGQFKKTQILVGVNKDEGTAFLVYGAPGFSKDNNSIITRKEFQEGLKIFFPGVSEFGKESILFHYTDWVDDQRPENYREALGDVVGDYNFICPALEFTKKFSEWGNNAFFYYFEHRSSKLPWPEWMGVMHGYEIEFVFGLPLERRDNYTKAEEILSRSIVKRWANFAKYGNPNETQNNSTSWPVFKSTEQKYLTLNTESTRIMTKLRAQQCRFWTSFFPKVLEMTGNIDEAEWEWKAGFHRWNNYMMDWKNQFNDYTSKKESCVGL
Description: Inhibition of human serum BCHE preincubated for 6 mins followed by addition of S-butyrylcholine iodide as substrate by Ellman's method

[9] = Metal chelating activity of the compound assessed as compound-Fe2+ complex formation by measuring maximum absorption wavelength range by UV-vis spectroscopy (reference value: 212 nm); type: physicochemical
[10] = Metal chelating activity of the compound assessed as compound-Fe3+ complex formation by UV-vis spectroscopy by measuring maximum absorption wavelength range by UV-vis spectroscopy (reference value: 212 nm); type: physicochemical
[11] = target: T2, Cholinesterase; test: Competitive inhibition of BCHE (unknown origin) using […] as substrate by Line weaver-Burk reciprocal plot analysis
[12] = target: T1, Acetylcholinesterase; test: Mixed-type inhibition of ACHE (unknown origin) using acetylcholine iodide as substrate by Line weaver-Burk reciprocal plot analysis
[13] = Metal chelating activity of the compound assessed as compound-Cu2+ complex formation by measuring bathochromic shift by UV-vis spectroscopy; type: physicochemical
[14] = Metal chelating activity of the compound assessed as compound-Zn2+ complex formation by UV-vis spectroscopy by measuring maximum absorption wavelength range by UV-vis spectroscopy (reference value: 212 nm); type: physicochemical

Chain of Acetylcholinesterase (Electrophorus electricus, UniProt O42275) (O42275 whole entry): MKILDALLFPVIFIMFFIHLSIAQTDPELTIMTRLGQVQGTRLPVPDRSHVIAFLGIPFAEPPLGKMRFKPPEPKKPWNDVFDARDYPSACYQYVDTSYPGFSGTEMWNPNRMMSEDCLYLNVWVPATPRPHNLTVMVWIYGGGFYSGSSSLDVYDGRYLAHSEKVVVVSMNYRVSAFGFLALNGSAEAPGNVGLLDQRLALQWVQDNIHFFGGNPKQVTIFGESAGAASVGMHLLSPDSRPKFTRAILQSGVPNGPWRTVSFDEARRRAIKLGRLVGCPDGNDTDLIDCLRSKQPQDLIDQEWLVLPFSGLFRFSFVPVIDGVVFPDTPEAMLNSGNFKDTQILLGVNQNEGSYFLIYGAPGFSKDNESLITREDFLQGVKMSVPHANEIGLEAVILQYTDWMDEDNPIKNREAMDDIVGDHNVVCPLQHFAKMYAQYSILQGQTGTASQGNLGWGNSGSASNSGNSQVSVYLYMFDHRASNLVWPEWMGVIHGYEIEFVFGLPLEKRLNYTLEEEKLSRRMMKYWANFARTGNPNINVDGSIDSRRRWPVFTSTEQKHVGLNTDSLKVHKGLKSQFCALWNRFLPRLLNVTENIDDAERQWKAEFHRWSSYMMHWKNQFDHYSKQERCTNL
Chain of Cholinesterase (Equus caballus, UniProt P81908) (P81908 whole entry): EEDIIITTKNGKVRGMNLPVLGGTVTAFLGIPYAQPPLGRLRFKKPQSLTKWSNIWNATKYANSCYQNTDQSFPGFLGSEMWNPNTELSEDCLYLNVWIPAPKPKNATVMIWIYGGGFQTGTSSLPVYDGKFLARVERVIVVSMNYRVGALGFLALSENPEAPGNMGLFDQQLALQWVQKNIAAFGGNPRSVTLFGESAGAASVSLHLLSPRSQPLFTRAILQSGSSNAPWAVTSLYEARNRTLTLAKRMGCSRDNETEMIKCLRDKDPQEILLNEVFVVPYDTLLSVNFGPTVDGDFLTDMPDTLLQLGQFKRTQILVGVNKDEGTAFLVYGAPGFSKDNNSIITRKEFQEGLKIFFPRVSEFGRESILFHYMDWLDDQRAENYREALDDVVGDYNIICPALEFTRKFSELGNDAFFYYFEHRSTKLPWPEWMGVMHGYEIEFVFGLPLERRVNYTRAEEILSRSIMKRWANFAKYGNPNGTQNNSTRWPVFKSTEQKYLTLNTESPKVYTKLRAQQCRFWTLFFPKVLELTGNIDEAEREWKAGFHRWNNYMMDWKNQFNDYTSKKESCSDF

Row | Structure (SMILES) | IC50 [1] [µM] | IC50 [2] [nM] | IC50 [6] [µM] | IC50 [8] [nM] | also measured
1 | COc1ccc2[nH]cc(CCNC(=O)CC3CCN(Cc4cccc(Cl)c4)CC3)c2c1 | 9.5 | 4400 |  |  | 
2 | O=C(CC1CCN(Cc2cccc(Cl)c2)CC1)NCCc1c[nH]c2ccccc12 | 1.63 | 950 |  |  | 
3 | O=C(CC1CCN(Cc2ccccc2Cl)CC1)NCCc1c[nH]c2ccccc12 | 28.2 | 1490 |  |  | 
4 | O=C(NCCc1c[nH]c2ccccc12)C1CCN(Cc2ccccc2[N+](=O)[O-])CC1 | 31.5 | 10800 |  |  | 
5 | COc1ccc2[nH]cc(CCNC(C)=O)c2c1 |  |  |  |  | Activity [3]: Active
6 | COc1ccc2[nH]cc(CCNC(=O)C3CCN(Cc4ccccc4C)CC3)c2c1 | 4.42 | 3210 | 7.42 | 3010 | Activity [4]: Non-toxic; Papp at 50 ug/ml [5]: 9.37 ×10⁻⁶ cm/s; Activity [7]: Active
7 | COc1ccc2[nH]cc(CCNC(=O)C3CCN(Cc4ccccc4)CC3)c2c1 | 9.27 | 8210 | 12.2 | 2210 | 
8 | COc1ccc2[nH]cc(CCNC(=O)CC3CCN(Cc4ccc(C)cc4)CC3)c2c1 | 5.26 | 1480 | 9.26 | 1060 | 
9 | O=C(CCc1c[nH]c2ccccc12)NCCC1CCN(Cc2ccccc2)CC1 | 0.193 | 73 | 0.273 | 56 | Activity [4]: Non-toxic; Activity [9]: 216 nm; Papp at 50 ug/ml [5]: 6.98 ×10⁻⁶ cm/s; Activity [10]: 216 nm; Activity [7]: Active; inhibition [11]: Active; inhibition [12]: Active; Activity [13]: 219 nm; Activity [14]: 214 nm
10 | Cc1ccccc1CN1CCC(C(=O)NCCc2c[nH]c3ccccc23)CC1 | 2.25 | 1500 | 3.56 | 400 | Activity [4]: Non-toxic; Papp at 50 ug/ml [5]: 8.9 ×10⁻⁶ cm/s; Activity [7]: Active
11 | O=C(CC1CCN(Cc2ccc(Cl)cc2)CC1)NCCc1c[nH]c2ccccc12 | 22.4 | 5290 |  |  | 
12 | O=C(CCc1c[nH]c2ccccc12)NC1CCN(Cc2ccccc2)CC1 | 5.75 | 370 | 8.32 | 120 | Activity [4]: Non-toxic
13 | O=C(NCCc1c[nH]c2ccccc12)C1CCN(Cc2ccccc2)CC1 | 5.55 | 3300 | 7.85 | 2000 | 
14 | COc1ccc2[nH]cc(CCNC(=O)CC3CCN(Cc4cccc(C)c4)CC3)c2c1 | 9.5 | 4400 | 13.5 | 1400 | 
15 | COc1ccc2[nH]cc(CCNC(=O)CC3CCN(Cc4ccc(Cl)cc4)CC3)c2c1 | 20.6 | 6480 |  |  | 
16 | COc1ccc2[nH]cc(CCNC(=O)CC3CCN(Cc4ccccc4C)CC3)c2c1 | 2.2 | 1280 | 3.6 | 1030 | Activity [4]: Non-toxic; Papp at 50 ug/ml [5]: 10.9 ×10⁻⁶ cm/s; Activity [7]: Active
17 | Cc1cccc(CN2CCC(CC(=O)NCCc3c[nH]c4ccccc34)CC2)c1 | 1.63 | 950 | 4.63 | 850 | 
18 | COc1ccc2[nH]cc(CCNC(=O)C3CCN(Cc4ccccc4[N+](=O)[O-])CC3)c2c1 | 54.2 | 28500 |  |  | 
19 | O=C(CC1CCN(Cc2ccccc2)CC1)NCCc1c[nH]c2ccccc12 | 2.1 | 1100 | 3.8 | 950 | Papp at 50 ug/ml [5]: 7.4 ×10⁻⁶ cm/s
20 | COc1ccc2[nH]cc(CCNC(=O)CC3CCN(Cc4ccccc4Cl)CC3)c2c1 | 16.8 | 1280 |  |  | 
21 | CC(=O)[C@H]1CC[C@H]2[C@@H]3CCC4=CC(=O)CC[C@]4(C)[C@H]3CC[C@]12C [PROGESTERONE] |  |  |  |  | Papp at 50 ug/ml [5]: 5.62 ×10⁻⁶ cm/s
22 | Cc1ccccc1CN1CCC(CC(=O)NCCc2c[nH]c3ccccc23)CC1 | 0.94 | 1490 | 1.54 | 1420 | Activity [4]: Non-toxic; Papp at 50 ug/ml [5]: 6.91 ×10⁻⁶ cm/s; Activity [7]: Active
23 | Cc1ccc(CN2CCC(CC(=O)NCCc3c[nH]c4ccccc34)CC2)cc1 | 1.94 | 1290 | 4.94 | 290 | 
24 | Cc1c(C)c2c(c(C)c1O)CCC(C)(C(=O)O)O2 (centres undefined) |  |  |  |  | Activity [3]: Active
